Here are results for 52 compounds from PubChem BioAssay AID1996.

≈ marks a conversion by molar mass, not a printed value.

For this series the following is noted: buffer; pH 7.4; 200.0 µM.
As for `C=CCC1(CC=C)CCCN1Cc1nc(COc2ccccc2)no1`, the kinetic solubility was 8.3 µg/mL (≈ 24.5 µM).

Take `COc1ccc(C)cc1NC(=S)NC12CN3CN(CN(C3)C1)C2`: the kinetic solubility was more than 50 µg/mL.

Compound `COc1ccc(CNC(=O)c2ccc(Br)cc2)cc1` came in with a kinetic solubility of 4.1 µg/mL (≈ 12.8 µM).

In the case of `Cc1ccccc1-n1c(C)nc2ccsc2c1=O.Cl`, the kinetic solubility was more than 43.9 µg/mL.

The compound `CCOC(=O)C(=CNc1ccc(OC)cc1[N+](=O)[O-])C(=O)OCC` gave a solubility (kinetic) of 0.9 µg/mL (≈ 2.66 µM).

The compound `O=C(/C=C/c1ccncc1)c1ccc2c(c1)OCCO2` had a solubility (kinetic) of 26.9 µg/mL (≈ 101 µM).

As for `COC(=O)c1cc(S(=O)(=O)N2CCCC2=O)c(Cl)cc1Cl`, the kinetic solubility was more than 52.8 µg/mL.

For `Cc1ccc(OCCn2cc(C(=O)O)c3ccccc32)cc1`, the kinetic solubility came out at 44.3 µg/mL (≈ 150 µM).

Turning to `CC(=O)c1ccc(NC(=O)C2CC2c2ccccc2)cc1` (configuration not stated), the solubility (kinetic) worked out at 9.4 µg/mL (≈ 33.7 µM).

Turning to `CCOC(=O)N1CCN=C1SCc1ccc(C(F)(F)F)cc1`, the kinetic solubility was determined as 13.6 µg/mL (≈ 40.9 µM). This solubility kinetic and that of the compound before are within 1.5-fold of each other.

The compound `Cc1ccc(NC(=O)c2cc3ccccc3o2)cc1` came in with a kinetic solubility of 1.5 µg/mL (≈ 5.97 µM).

Compound `CN(C)S(=O)(=O)c1ccc(Cl)c(C(=O)OCC(=O)c2ccco2)c1` came in with a kinetic solubility of more than 55.8 µg/mL.

`COC(=O)c1c(NC(=O)C2=COCCO2)sc(C)c1C` had a kinetic solubility of 0.7 µg/mL (≈ 2.35 µM).

Compound `COc1ccc(C)cc1NC(=O)CN(C)C1CCCCC1` gave a kinetic solubility of 30.9 µg/mL (≈ 106 µM).

`Cc1ccc(C(=O)OCC(=O)N2C(C)CCCC2C)s1` (configuration not stated) showed a solubility (kinetic) of 28.2 µg/mL (≈ 95.5 µM).

The compound `Cc1cc(NC(=O)CSc2ccccn2)no1` yielded a kinetic solubility of more than 37.4 µg/mL.

`Cc1cc(NC(=O)C2CC(=O)N(c3cccc(C)c3C)C2)no1` (configuration not stated) showed a solubility (kinetic) of more than 47 µg/mL.

In turn, `CCCCN(CCO)c1ncnc2sc(-c3ccccc3)cc12` returned a solubility (kinetic) of less than 0.2 µg/mL.

`CCCOc1ccc(/C=C/C(=O)NC2CCCCC2)cc1` registered a kinetic solubility of less than 0.6 µg/mL.

The compound `CN(C(=O)c1ccc(COc2ccccc2Cl)o1)c1ccccc1` showed a solubility (kinetic) of 8.8 µg/mL (≈ 25.7 µM).

`O=C(CSCc1cccc(F)c1)NCc1ccccc1`: the solubility (kinetic) was 35.2 µg/mL (≈ 122 µM).

`COc1ccccc1C(NC(C)=O)c1c(O)ccc2ccc(O)cc12` (configuration not stated): the solubility (kinetic) is more than 50.6 µg/mL.

Compound `Cc1cccc(OCC(O)Cn2ccnc2C)c1` (configuration not stated) showed a solubility (kinetic) of 33.2 µg/mL (≈ 135 µM).

Take `COc1ccc(-c2noc(-c3cccs3)n2)cc1OC`: the kinetic solubility turned out to be 0.5 µg/mL (≈ 1.73 µM). Against the preceding compound, the solubility kinetic is about 66-fold lower.

`COc1ccc(C(=O)OCC(=O)NC(=O)NC2CCCC2)cc1[N+](=O)[O-]` gave a kinetic solubility of 6.4 µg/mL (≈ 17.5 µM). This solubility kinetic lies about 13-fold higher than the previous one.

In the case of `Cc1nc([N+](=O)[O-])c(C(=O)OCc2ccccc2)n1C`, the solubility (kinetic) amounted to 37.6 µg/mL (≈ 137 µM).

For `[Cl-].c1ccc(Cn2c[n+](Cc3ccccc3)cn2)cc1`, the solubility (kinetic) is more than 42.9 µg/mL.

As for `COc1ccc(-c2cc(C(=O)Nc3cc(C)on3)no2)cc1OC`, the kinetic solubility was less than 0.2 µg/mL.

In turn, `CC(=O)Nc1cccc(NC(=O)CCNC(=O)c2ccccc2)c1` had a solubility (kinetic) of more than 48.8 µg/mL.

`CCc1cccc(CC)c1NC(=O)C1CCN(C(=O)c2ccco2)CC1` had a kinetic solubility of 51.2 µg/mL (≈ 144 µM).

In turn, `CCCC(C)NC(=O)CSc1nnc2ccccn12` (configuration not stated) came in with a kinetic solubility of more than 41.8 µg/mL.

`CC1C(=O)NC(=O)C1c1ccccc1` (configuration not stated) registered a solubility (kinetic) of more than 28.4 µg/mL.

In turn, `C=CCNC(=S)N1CCc2[nH]c3ccccc3c2C1` had a solubility (kinetic) of 5.5 µg/mL (≈ 20.3 µM).

Compound `Nc1nc(-c2ccccc2)cc(-c2ccccc2)n1` gave a kinetic solubility of 2.6 µg/mL (≈ 10.5 µM).

`FC(F)(F)c1ccc(-c2csc(-c3ccno3)n2)cc1`: the solubility (kinetic) is less than 0.3 µg/mL.

`Cc1cc(C)cc(NC(=O)Nc2ccc(N3CCCCC3)cc2)c1`: the solubility (kinetic) was 0.3 µg/mL (≈ 0.928 µM).

Take `Nc1nonc1C(=O)NCCNC(=O)c1cccc(Cl)c1`: the solubility (kinetic) was determined as 45.8 µg/mL (≈ 148 µM).

On to `COC(=O)c1cc(S(=O)(=O)N2CCCCCC2)cn1C`, for which the solubility (kinetic) was 38.8 µg/mL (≈ 129 µM).

For `Cc1ccc(C)c(S(=O)(=O)N2CCNCC2)c1`, the kinetic solubility was more than 38.2 µg/mL.

`Cc1cccc2nc3ccccc3cc12` came in with a solubility (kinetic) of 6.8 µg/mL (≈ 35.2 µM).

As for `O=C(NCC(=O)N1CCN(C/C=C/c2ccccc2)CC1)c1ccc(Br)cc1`, the kinetic solubility is 15.4 µg/mL (≈ 34.8 µM).

`CCN(CC)S(=O)(=O)c1ccc(NC(=O)c2cnccn2)cc1` came in with a kinetic solubility of 7.8 µg/mL (≈ 23.3 µM). Compared with the last compound, the solubility kinetic is about 2-fold lower.

Regarding `CN(C)/C=C/C(=O)c1ccc2noc(-c3cccc(F)c3)c2c1`, the solubility (kinetic) came to 7.3 µg/mL (≈ 23.5 µM).

Take `CC1=N/C(=C\c2ccccc2Cl)C(=O)O1`: the solubility (kinetic) came to 27.7 µg/mL (≈ 125 µM).

`O=C(O)CCC(=O)Nc1ccc(OCC2CCCO2)cc1` (configuration not stated) returned a kinetic solubility of 43.8 µg/mL (≈ 149 µM).

`COc1cccc(-c2nc(NCc3cccnc3)c3ccccc3n2)c1O` came in with a kinetic solubility of 0.3 µg/mL (≈ 0.837 µM).

The compound `O=C(OCc1ccccc1F)c1cnc(Cl)c(Cl)c1` came in with a solubility (kinetic) of 1.6 µg/mL (≈ 5.33 µM).

`CCOC(=O)C1CCCCN1Cc1ccc(-c2ccccc2)cc1` (configuration not stated): the kinetic solubility was determined as 1.5 µg/mL (≈ 4.64 µM).

`O=C(NCc1ccco1)C1CC(c2ccc(F)cc2)=NO1` (configuration not stated): the solubility (kinetic) came out at 8 µg/mL (≈ 27.8 µM).

Compound `Cc1cc(Nc2ccc(C(=O)O)cc2)nc(N)n1` came in with a solubility (kinetic) of 28 µg/mL (≈ 115 µM).

On to `NC(=O)C1CCN(CC(O)CSc2ccc(F)cc2)CC1` (configuration not stated), for which the kinetic solubility was found to be 37.3 µg/mL (≈ 119 µM).

In turn, `COc1cccc(NC(=O)Nc2nc(SC(C)(C)C)ns2)c1` had a solubility (kinetic) of 1.1 µg/mL (≈ 3.25 µM).
